The term inhibition denotes the percentage by which the read-out fell short of the control. For orientation: IC50 means the concentration that inhibits the measured activity by half.

The values below come from PMC7594047, “Synthesis of a New Class of Spirooxindole–Benzo[b]Thiophene-Based Molecules as Acetylcholinesterase Inhibitors” (Molecules, 2020).

Read-outs that look alike come from different tables or passages of the source.

The assay addresses T1, acetylcholinesterase enzyme from electric eel (Electrophorus electricus, UniProt O42275).
T1 construct: purchased Sigma-Aldrich CAS Number 9000-81-1 (catalogue number not given)
Briefly: Acetylcholinesterase (AChE) inhibitory assay (DTNB/acetylthiocholine iodide, absorbance at 412 nm). Format: biochemical. To be noted: for inhibition at 1.56 µg/mL: Conc 1.56 ug/ml; for inhibition at 3.125 µg/mL: Conc 3.125 ug/ml; for inhibition at 6.25 µg/mL: Conc 6.25 ug/ml; for inhibition at 12.5 µg/mL: Conc 12.5 ug/ml; for inhibition at 25 µg/mL: Conc 25 ug/ml; for inhibition at 50 µg/mL: Conc 50 ug/ml. The method, then: The in vitro cholinesterase inhibitory activity of the 14 synthesized spiro-oxindole derivatives (IIa–n) were evaluated. […] Galantamine was used as a positive control for comparison.
Acetylcholinesterase (AChE) inhibitory assay.
140 μL of 0.1 M sodium phosphate buffer of pH 8 was first added to a 96-wells microplate followed by 20 μL of test samples and 20 μL of 0.09 units/mL acetylcholinesterase enzyme from electric eel (Sigma-Aldrich, CAS Number 9000-81-1). After 15 min of incubation at 25 °C, 10 μL of 10 mM 5,5′-dithiobis-2-nitrobenzoic acid (DTNB, Sigma-Aldrich, CAS Number 69-78-3) was added into each well followed by 10 μL of 14 mM acetylthiocholine iodide (Sigma-Aldrich, CAS Number 1866-15-5). Thirty min after the initiation of enzymatic reaction, absorbance of the colored end-product was measured using StatFax-2100 microplate reader (Awareness Technology, Inc., USA) at 412 nm. Each test was conducted in triplicates. Test samples were prepared in DMSO at an initial concentration of 1 mg/mL (1000 ppm).
The concentration of DMSO in final reaction mixture was 1%.
The initial screening was carried out at 50 μg/mL of test samples in 1% DMSO. Absorbance of the test samples was corrected by subtracting the absorbance of their respective blank. Percentage enzyme inhibition is calculated using the following formula Percentage of inhibition = Absorbance of control - […]

Setting [1] is: read-out: IC50 value against AChE.
[2] abbreviates: supplement, six concentrations 1.56-50 μg/mL, read-out: IC50 (AchE inhibition) (converted).

T1 sequence (O42275 24-633): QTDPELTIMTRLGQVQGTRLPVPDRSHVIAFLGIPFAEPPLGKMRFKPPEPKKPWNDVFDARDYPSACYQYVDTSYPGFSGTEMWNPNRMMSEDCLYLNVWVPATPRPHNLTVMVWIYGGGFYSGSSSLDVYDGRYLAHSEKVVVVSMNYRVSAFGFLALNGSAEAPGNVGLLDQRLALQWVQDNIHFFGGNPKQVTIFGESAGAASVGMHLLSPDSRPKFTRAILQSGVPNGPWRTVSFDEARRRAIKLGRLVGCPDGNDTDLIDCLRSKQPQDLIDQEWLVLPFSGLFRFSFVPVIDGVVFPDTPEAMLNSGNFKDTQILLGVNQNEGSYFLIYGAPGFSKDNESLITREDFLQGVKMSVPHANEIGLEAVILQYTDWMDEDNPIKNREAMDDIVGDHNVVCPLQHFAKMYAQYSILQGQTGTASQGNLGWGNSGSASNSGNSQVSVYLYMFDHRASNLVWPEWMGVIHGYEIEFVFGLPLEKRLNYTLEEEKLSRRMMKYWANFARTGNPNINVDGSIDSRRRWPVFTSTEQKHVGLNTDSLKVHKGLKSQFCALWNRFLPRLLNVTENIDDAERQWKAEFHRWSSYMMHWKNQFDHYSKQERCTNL

`O=C(c1ccccc1)C1C(c2cc3ccccc3s2)C2CSCN2[C@@]12C(=O)Nc1ccc(Cl)cc12` (stereo partly drawn) [IIa, (3S)-7′-(Benzo[b]thiophen-2-yl)-6′-benzoyl-5-chloro-3′,6′,7′,7a’-tetrahydro-1′H-spiro[indoline-3,5′-pyrrolo[1,2-c]thiazol]-2-one] returned an inhibition at 1.56 µg/mL of 1.68%, an inhibition at 3.125 µg/mL of 6.58%, an inhibition at 6.25 µg/mL of 14.4% and an inhibition at 12.5 µg/mL of 27.7%. The same compound came in with an inhibition at 25 µg/mL of 39% and an inhibition at 50 µg/mL of 50.4%. In addition, under setting [1], the IC50 was more than 70 µM. Moreover, the IC50 under setting [2] was 85.6 µM.
As for `O=C(c1ccccc1)C1C(c2cc3ccccc3s2)C2CSCN2[C@@]12C(=O)Nc1ccccc12` (stereo partly drawn) [IIb, (3S)-7′-(Benzo[b]thiophen-2-yl)-6′-benzoyl-3′,6′,7′,7a’-tetrahydro-1′H-spiro[indoline-3,5′-pyrrolo[1,2-c]thiazol]-2-one], 1.56 µg/mL produced 2.76% inhibition, testing at 3.125 µg/mL gave an inhibition of 8.12%, at 6.25 µg/mL the inhibition was 16.2% and the inhibition at 12.5 µg/mL is 25.6%. Besides, testing at 25 µg/mL gave an inhibition of 40.9% and the inhibition at 50 µg/mL worked out at 51.5%. The IC50 under setting [1] was more than 70 µM. In addition, under setting [2], the IC50 was 88.4 µM.
On to `O=C(c1ccccc1)C1C(c2cc3ccccc3s2)C2C3CCCCC3CN2[C@@]12C(=O)Nc1ccc(Cl)cc12` (stereo partly drawn) [IIc, (3S)-1′-(Benzo[b]thiophen-2-yl)-2′-benzoyl-5-chloro-1′,2′,5′,5a’,6′,7′,8′,9′,9a’,9b’-decahydrospiro[indoline-3,3′-pyrrolo[2,1-a]isoindol]-2-one], for which at 1.56 µg/mL the inhibition was 13.9%, the inhibition at 3.125 µg/mL was found to be 29.9%, 6.25 µg/mL produced 43.5% inhibition and the inhibition at 12.5 µg/mL was determined as 54.5%. Further, 25 µg/mL produced 61.6% inhibition and the inhibition at 50 µg/mL turned out to be 70.3%. Also, the IC50 under setting [2] is 20.8 µM.
`O=C(c1ccc(Cl)cc1)C1C(c2cc3ccccc3s2)C2CSCN2[C@@]12C(=O)Nc1ccc(Cl)cc12` (stereo partly drawn) [IId, (3S)-7′-(Benzo[b]thiophen-2-yl)-5-chloro-6′-(4-chlorobenzoyl)-3′,6′,7′,7a’-tetrahydro-1′H-spiro[indoline-3,5′-pyrrolo[1,2-c]thiazol]-2-one] gave an inhibition at 1.56 µg/mL of 19.8%, an inhibition at 3.125 µg/mL of 24.8%, an inhibition at 6.25 µg/mL of 29.7% and an inhibition at 12.5 µg/mL of 41.5%. Further, the inhibition at 25 µg/mL came out at 53.3% and at 50 µg/mL the inhibition was 64%. Besides, the concentration for half-maximal inhibition (IC50) under setting [1] amounted to 37.7 µM. Under setting [2], the IC50 was 37.7 µM.
`O=C(c1ccc(Cl)cc1)C1C(c2cc3ccccc3s2)C2CSCN2[C@@]12C(=O)Nc1ccccc12` (stereo partly drawn) [IIe, (3S)-7′-(Benzo[b]thiophen-2-yl)-6′-(4-chlorobenzoyl)-3′,6′,7′,7a’-tetrahydro-1′H-spiro[indoline-3,5′-pyrrolo[1,2-c]thiazol]-2-one] gave an inhibition at 1.56 µg/mL of 18.2%, an inhibition at 3.125 µg/mL of 23.3%, an inhibition at 6.25 µg/mL of 27.7% and an inhibition at 12.5 µg/mL of 40.3%. Besides, the inhibition at 25 µg/mL amounted to 50.5% and the inhibition at 50 µg/mL stood at 58.6%. The half-inhibitory concentration (IC50) under setting [1] is 50.6 µM. Under setting [2], the IC50 was 50.6 µM.
Compound `O=C(c1ccc(Cl)cc1)C1C(c2cc3ccccc3s2)C2C3CCCCC3CN2[C@@]12C(=O)Nc1ccc(Cl)cc12` (stereo partly drawn) [IIf, (3S)-1′-(Benzo[b]thiophen-2-yl)-5-chloro-2′-(4-chlorobenzoyl)-1′,2′,5′,5a’,6′,7′,8′,9′,9a’,9b’-decahydrospiro[indoline-3,3′-pyrrolo[2,1-a]isoindol]-2-one] yielded an inhibition at 1.56 µg/mL of 16.1%, an inhibition at 3.125 µg/mL of 24.4%, an inhibition at 6.25 µg/mL of 34.9% and an inhibition at 12.5 µg/mL of 43%. This compound came in with an inhibition at 25 µg/mL of 53% and an inhibition at 50 µg/mL of 63.1%. Further, the IC50 under setting [1] is 34 µM. The IC50 under setting [2] is 34 µM.
